Key:
[1] = biological target: T1, class II fructose 1,6-bisphosphate aldolase (MtFBA) (Mycobacterium tuberculosis, UniProt P9WQA3); experiment: biochemical; assay type: binding
[2] = biological target: T1, class II fructose 1,6-bisphosphate aldolase (MtFBA); experiment: biochemical

T1 sequence (P9WQA3 whole entry): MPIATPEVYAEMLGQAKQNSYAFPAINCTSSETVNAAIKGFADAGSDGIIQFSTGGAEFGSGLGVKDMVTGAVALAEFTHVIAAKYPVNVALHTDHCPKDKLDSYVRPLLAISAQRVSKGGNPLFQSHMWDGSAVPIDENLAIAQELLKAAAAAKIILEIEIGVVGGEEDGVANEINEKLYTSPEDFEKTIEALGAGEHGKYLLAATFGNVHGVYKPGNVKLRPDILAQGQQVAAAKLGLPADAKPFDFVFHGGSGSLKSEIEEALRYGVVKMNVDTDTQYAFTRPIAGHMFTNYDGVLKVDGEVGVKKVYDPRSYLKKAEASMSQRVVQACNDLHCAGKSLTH

Row | Structure (SMILES) | Kd [1] | Ki [2]
1 | O=C(COP(=O)(O)O)NO [PGH, phosphoglycolohydroxamate] | 0.0211 ± 0.0002 µM | 
2 | O=C(CO)COP(=O)(O)O [DHAP, dihydroxyacetone phosphate] |  | 238 ± 20 µM

From publication PMC4170518 (Biochemistry, 2013)
